Assay [1] addresses T1, Cystic fibrosis transmembrane conductance regulator (Homo sapiens, UniProt P13569, F508DEL). Put plainly: Potentiation of CFTR F508del mutant (unknown origin) expressed in NIH3T3 cells. Type of assay: cell-based.
Assay [2] addresses T1, Cystic fibrosis transmembrane conductance regulator. Put plainly: Activation of CFTR F508del mutant (unknown origin).
For assay [3] the target is unchanged. Nature of the assay: Corrector activity at […] CFTR F508del mutant (unknown origin) expressed in BHK cells assessed as increase in chloride secretion […]. In kind it is cell-based.
The target is the same in assay [4]. Nature of the assay: Potentiation of CFTR F508del mutant (unknown origin) in FRT cells assessed as rescue of CFTR mutant incubated for 24 hrs in presence of VX-770. Type of assay: cell-based.
The target in assay [5] is Cystic fibrosis transmembrane conductance regulator (Homo sapiens, UniProt P13569, G551D). Nature of the assay: Potentiation of CFTR G551D mutant (unknown origin) expressed in FRT cells. Type of assay: cell-based.
Assay [6] addresses T2, Cystic fibrosis transmembrane conductance regulator (Homo sapiens, UniProt P13569, N1303K). Put plainly: Potentiation of CFTR N1303K mutant (unknown origin) transfected in […] FRT cells in presence of forskolin/VX-770. In kind it is cell-based.
Assay [7] concerns Cystic fibrosis transmembrane conductance regulator (Homo sapiens), P13569 [G551D]. Put plainly: Potentiation of CFTR G551D mutant (unknown origin) expressed in FRT cells assessed as increase in chloride current in presence of VX-770 relative to control. In kind it is cell-based. The conditions noted are these: filed as activator.
For assay [8], the target named is Cystic fibrosis transmembrane conductance regulator (Homo sapiens, UniProt P13569, W1282X). Put plainly: Potentiation of CFTR W1282X mutant (unknown origin) transfected in […] FRT cells in presence of forskolin/VX-770. In kind it is cell-based.
In assay [9] the target is T2, Cystic fibrosis transmembrane conductance regulator. Put plainly: Potentiation of CFTR N1303K mutant (unknown origin) expressed in FRT cells assessed as increase in CFTR mutant activity. Type of assay: cell-based.

Data on 13 molecules can be found in ChEMBL document CHEMBL5523680, “Small molecule modulators of cystic fibrosis transmembrane conductance regulator (CFTR): Structure, classification, and mechanisms” (Eur J Med Chem, 2024).

T1 sequence (P13569 as listed by the source): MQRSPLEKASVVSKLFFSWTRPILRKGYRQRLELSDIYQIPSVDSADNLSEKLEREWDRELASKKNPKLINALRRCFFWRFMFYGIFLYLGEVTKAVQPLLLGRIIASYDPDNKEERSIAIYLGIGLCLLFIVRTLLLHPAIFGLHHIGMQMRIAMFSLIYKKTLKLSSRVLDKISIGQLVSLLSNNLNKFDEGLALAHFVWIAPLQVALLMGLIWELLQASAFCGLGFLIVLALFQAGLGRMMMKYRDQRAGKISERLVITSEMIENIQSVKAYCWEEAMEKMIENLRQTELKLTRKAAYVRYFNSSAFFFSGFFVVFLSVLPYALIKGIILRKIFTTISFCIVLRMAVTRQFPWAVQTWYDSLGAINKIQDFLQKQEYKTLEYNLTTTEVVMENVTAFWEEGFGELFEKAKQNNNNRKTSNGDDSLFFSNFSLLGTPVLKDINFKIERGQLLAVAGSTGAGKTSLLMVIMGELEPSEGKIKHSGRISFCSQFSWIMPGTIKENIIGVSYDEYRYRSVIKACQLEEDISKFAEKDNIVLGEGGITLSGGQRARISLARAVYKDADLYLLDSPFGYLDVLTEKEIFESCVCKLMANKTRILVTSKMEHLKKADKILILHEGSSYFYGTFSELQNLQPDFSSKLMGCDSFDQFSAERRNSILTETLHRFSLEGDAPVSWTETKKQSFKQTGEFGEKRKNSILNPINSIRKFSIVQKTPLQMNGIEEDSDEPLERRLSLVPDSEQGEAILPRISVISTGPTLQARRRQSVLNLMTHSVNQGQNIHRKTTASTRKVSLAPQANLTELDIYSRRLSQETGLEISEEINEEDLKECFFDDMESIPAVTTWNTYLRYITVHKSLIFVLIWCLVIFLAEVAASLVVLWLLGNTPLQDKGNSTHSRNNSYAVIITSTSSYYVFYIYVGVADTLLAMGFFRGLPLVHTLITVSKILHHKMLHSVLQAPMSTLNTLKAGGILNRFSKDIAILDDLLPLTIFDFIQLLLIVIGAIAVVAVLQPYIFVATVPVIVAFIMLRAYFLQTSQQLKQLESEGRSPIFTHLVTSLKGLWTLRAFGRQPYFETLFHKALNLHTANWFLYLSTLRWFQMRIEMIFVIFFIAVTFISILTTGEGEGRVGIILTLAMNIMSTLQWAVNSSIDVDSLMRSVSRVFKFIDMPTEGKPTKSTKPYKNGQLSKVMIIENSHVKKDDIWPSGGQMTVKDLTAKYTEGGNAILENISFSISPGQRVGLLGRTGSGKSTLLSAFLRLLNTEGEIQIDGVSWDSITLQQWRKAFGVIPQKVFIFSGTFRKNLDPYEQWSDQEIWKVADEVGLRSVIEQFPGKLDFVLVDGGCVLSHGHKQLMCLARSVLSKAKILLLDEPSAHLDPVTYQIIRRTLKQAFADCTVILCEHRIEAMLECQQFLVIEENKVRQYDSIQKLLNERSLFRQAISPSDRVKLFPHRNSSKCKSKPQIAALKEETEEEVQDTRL
T2 sequence (P13569 whole entry N1303K): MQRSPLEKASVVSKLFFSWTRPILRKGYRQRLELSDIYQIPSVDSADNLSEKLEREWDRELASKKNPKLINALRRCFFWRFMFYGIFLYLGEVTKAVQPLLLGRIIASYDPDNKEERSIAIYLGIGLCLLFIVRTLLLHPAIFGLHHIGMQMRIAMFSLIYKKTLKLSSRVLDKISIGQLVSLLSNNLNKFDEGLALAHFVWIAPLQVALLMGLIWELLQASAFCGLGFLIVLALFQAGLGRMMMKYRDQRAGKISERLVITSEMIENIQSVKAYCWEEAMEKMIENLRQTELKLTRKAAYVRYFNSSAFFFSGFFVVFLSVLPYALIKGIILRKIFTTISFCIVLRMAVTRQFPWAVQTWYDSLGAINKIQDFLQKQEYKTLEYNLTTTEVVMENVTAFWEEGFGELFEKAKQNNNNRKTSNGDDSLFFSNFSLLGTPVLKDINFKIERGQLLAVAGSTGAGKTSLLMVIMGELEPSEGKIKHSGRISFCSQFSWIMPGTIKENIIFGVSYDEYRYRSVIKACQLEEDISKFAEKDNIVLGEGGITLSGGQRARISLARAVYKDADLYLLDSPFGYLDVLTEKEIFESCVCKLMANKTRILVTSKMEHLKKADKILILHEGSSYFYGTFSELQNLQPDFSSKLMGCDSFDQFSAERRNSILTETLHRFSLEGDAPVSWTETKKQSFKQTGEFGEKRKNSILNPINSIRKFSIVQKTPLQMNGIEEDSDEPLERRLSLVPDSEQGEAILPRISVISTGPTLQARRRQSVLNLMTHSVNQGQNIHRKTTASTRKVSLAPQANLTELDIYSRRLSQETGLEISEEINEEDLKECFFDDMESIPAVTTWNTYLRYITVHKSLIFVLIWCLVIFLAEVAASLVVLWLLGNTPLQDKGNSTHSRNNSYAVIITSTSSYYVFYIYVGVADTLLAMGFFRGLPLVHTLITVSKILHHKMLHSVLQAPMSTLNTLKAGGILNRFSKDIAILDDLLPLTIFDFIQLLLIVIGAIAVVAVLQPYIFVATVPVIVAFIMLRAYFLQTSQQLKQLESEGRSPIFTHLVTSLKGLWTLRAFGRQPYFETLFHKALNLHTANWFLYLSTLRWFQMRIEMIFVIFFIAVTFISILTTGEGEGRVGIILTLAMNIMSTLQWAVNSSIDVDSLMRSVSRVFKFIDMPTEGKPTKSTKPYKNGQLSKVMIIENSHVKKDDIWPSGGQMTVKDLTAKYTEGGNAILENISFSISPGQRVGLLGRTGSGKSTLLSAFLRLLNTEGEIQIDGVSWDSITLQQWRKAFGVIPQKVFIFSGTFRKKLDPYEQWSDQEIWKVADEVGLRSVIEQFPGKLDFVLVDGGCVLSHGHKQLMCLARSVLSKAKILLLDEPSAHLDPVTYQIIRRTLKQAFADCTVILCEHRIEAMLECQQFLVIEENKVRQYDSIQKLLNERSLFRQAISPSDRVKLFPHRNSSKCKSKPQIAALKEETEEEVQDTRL
Sequence of Cystic fibrosis transmembrane conductance regulator (Homo sapiens), P13569 [G551D] (P13569 whole entry G551D): as the sequence (P13569 whole entry N1303K) above, with G551D, K1303N counted along it
Sequence of Cystic fibrosis transmembrane conductance regulator (Homo sapiens, UniProt P13569, G551D) (P13569 whole entry G551D): as the sequence (P13569 whole entry N1303K) above, with G551D, K1303N counted along it

As usually defined, the EC50 is the midpoint of the concentration-response curve. Consider `CC(C)(CO)c1cc2cc(NC(=O)C3(c4ccc5c(c4)OC(F)(F)O5)CC3)c(F)cc2n1C[C@@H](O)CO` [TEZACAFTOR], for which, in [1], the EC50 stood at 1100 nM.
The molecule `OC(C1=NC(c2ccc(Br)cc2)NN1)c1ccc(Br)cc1` (stereo unspecified) returned an EC50 in assay [2] of 2700 nM.
Same read-out and setting: the figure for `OCc1cccc(N2C=CN(c3ccccc3)N2)c1` is 1900 nM.
For `O=C(Nc1ncc(Cc2ccccc2Cl)s1)C(c1ccccc1)c1ccccc1`, the EC50 stood at 7000 nM in [1] and 81 nM in assay [3].
Consider `OC(C1=NC(c2ccc(Br)cc2)NN1)c1ccccc1Br` (stereo unspecified), for which, in assay [2], the response was half-maximal at 3000 nM (EC50).
In turn, `O=P(O)(CCP(=O)(O)c1ccccc1)c1ccccc1` gave an EC50 in [2] of 1000 nM.
`Cc1ncccc1CNC(=O)c1ccc2c(c1)CC[C@@H]1C[C@@](O)(CCC(F)(F)F)CC[C@@]21Cc1ccccc1`: the EC50 in [4] was 400 nM.
Take `O=C(Nc1ccc2cc[nH]c2c1)c1c[nH]c2ccccc2c1=O`: the half-maximal effective concentration (EC50) in [5] turned out to be 100 nM.
Molecule `Cc1ccc(S(=O)(=O)Nc2nc3ccccc3nc2C2CCOCC2)cc1` came in with an EC50 in assay [2] of 930 nM.
On the same count and under the same terms, for `OC(C1=CNNN1c1ccc(Br)cc1)c1ccccc1Br` (stereo unspecified) the value was 4200 nM.
With `CCCCN1CC(S(=O)(=O)Nc2ccc(CC)cc2)c2cccnc21` (stereo unspecified), the values for the EC50 in assay [6] and in assay [8] were 1900 nM and 1000 nM, respectively. In assay [7], the Activity is 65%.
As for `COc1ccc(S(=O)(=O)N2CCN(C(C)c3nc(OC4CCCCC4)c4ccccc4n3)CC2)cc1` (stereo unspecified), in [1], the EC50 is 3300 nM.
Take `O=c1cc(-c2ccc(O)cc2)oc2cc(O)cc(O)c12` [APIGENIN]: the EC50 in [9] was 10800 nM.
